The values that follow come from patent publication US20240133897A1, “COMPOSITIONS AND METHODS FOR IDENTIFYING AND MODULATING THROMBOTIC CONDITIONS IN A CANCER PATIENT” (Beth Israel Deaconess Medical Center, Inc., priority 2019, published 2024).

The test system of experiment [1] is HPAF-II cells. The experiment is described as follows: Flow cytometry of TF-bearing extracellular vesicles from HPAF-II cells after UPR induction. Type of experiment: cell-based. The following applies: for increase in the generation of TF-bearing EVs: HPAF-II cells following UPR induction, flow cytometry. From the text: (§1) The unfolded protein response (UPR) is associated with malignant transformation in pancreatic cancer, but whether or not activation of the UPR is linked to cancer thrombosis has not previously been evaluated. To determine whether UPR signaling functions in the prothrombotic transformation of pancreatic cancer, pancreatic adenocarcinoma cells (HPAF-II cells) were exposed to three UPR inducers (tunicamycin, triptolide and thapsigargin) that act via independent mechanisms. […] Release of thrombogenic material was inhibited by siRNA-mediated knockdown of UPR components including IRE1α (80%±3% decrease) or PERK (60%±10% decrease). […] Apoptosis as detected by caspase-3 cleavage was not observed under these conditions.

In experiment [2] the test system is HPAF-II cells. The experiment is described as follows: Thrombin generation by material released from HPAF-II cells after UPR induction. Type of experiment: cell-based. The following applies: for increase in thrombin generation in pelleted material: pancreatic adenocarcinoma HPAF-II cells exposed to UPR inducers, supernatant pelleted material; for decrease in thrombin generation (release of thrombogenic material): HPAF-II cells, UPR induced, chemical inhibition or siRNA knockdown of UPR components.
From the text: as §1

On to `C/C=C(/C)C(=O)O[C@H]1C(C)=C2[C@H]([C@@H]1OC(=O)CCCCCCC)[C@@](C)(OC(C)=O)C[C@H](OC(=O)CCC)[C@@]1(O)[C@H]2OC(=O)[C@@]1(C)O` [thapsigargin], for which the “increase in the generation of TF-bearing EVs” value (shortened to “increase in the generation”) with HPAF-II cells [1] amounted to 3 fold. Moreover, the “increase in thrombin generation in pelleted material” value (“increase in thrombin generation” below) in the experiment with HPAF-II cells [2] was 3 fold.

With tunicamycin, the “increase in the generation” value in the experiment on HPAF-II cells [1] was 3 fold. For the same compound, the “increase in thrombin generation” value with HPAF-II cells [2] is reported as 3 fold.

As for `Cn1cc(-c2ccc3c(c2)CCN3C(=O)Cc2cccc(C(F)(F)F)c2)c2c(N)ncnc21` [GSK2606414], the “decrease in thrombin generation (release of thrombogenic material)” value in the experiment with HPAF-II cells [2] is reported as 80%±5%.

Consider `CC(C)[C@]12O[C@H]1[C@@H]1O[C@]13[C@]1(O[C@H]1C[C@H]1C4=C(CC[C@@]13C)C(=O)OC4)[C@@H]2O` [triptolide], for which the “increase in the generation” value in the experiment with HPAF-II cells [1] is listed as 3 fold. In addition, the “increase in thrombin generation” value in the experiment on HPAF-II cells [2] is listed as 3 fold.

`CN1CCN(C(=O)c2ccc(-c3ccc4c(C=O)c(O)ccc4c3)s2)CC1` [MKC-3946]: in the experiment on HPAF-II cells [2], the “decrease in thrombin generation (release of thrombogenic material)” value is recorded as 70%±10%.

As for `C[C@H]1CCC/C=C/[C@@H]2C[C@H](O)C[C@H]2[C@H](O)/C=C/C(=O)O1` [Brefeldin A], the “inhibition of UPR-induced generation of TF-bearing EVs” value in the experiment with HPAF-II cells [1] (HPAF-II cells, UPR induced) is recorded as “inhibited”.
